Each block holds one substance with its values, some of them ahead of it.
What was measured:
[1] = Electrophoresis of polyanionic property on cellulose acetate membrane; assay type: physicochemical; conditions: 0.2 N hydrochloric acid, about 65 mA for 65 minutes; for DISTANCE (CM): electrophoretic migration from cathode end, toluidine blue stain
Experimental: The unique polyanionic property of polysulfated glycosaminoglycan (PSGAG) is determined by electrophoresis. A 70 mm cellulose acetate (CA) membrane, saturated with 0.2 N hydrochloric acid is suspended with contact between the cathode and anode of an electrophoresis chamber. A test solution of PSGA G containing about 1 microgram of PSGAG is applied to the cathode end of the strip. A current of about 65 mA is applied for 65 minutes. The CA membrane is removed from the tank, then stained with a 0.1% toluidine blue solution for 5 minutes. The CA membrane is rinsed with a sufficient quantity of water to remove the excess toluidine blue. On the strip, PSGAG appears as only one violet-blue spot at a distance of approximately 3 cm from its starting point.
The cathode is the negative terminal of the electrophoresis chamber. Anionic compounds, such as PSGAG, under an applied current will migrate towards the chamber's anode (i.e., its positive terminal). The polyanionic property of PSGAG was compared to hyaluronic acid, chondroitin sulfate A, chondroitin sulfate B (dermatan sulfate), chondroitin sulfate C, heparin sulfate and keratan sulfate using electrophoresis.

human chondrocytes = conditions: cultured human chondrocytes; cited from earlier work
rabbit chondrocytes = conditions: cultured rabbit chondrocytes; cited from earlier work
[2] = tested on: Prostaglandin E2 (PGE2) synthesis; conditions: cited from earlier work
cathepsin B1 = cathepsin B1 (Homo sapiens, UniProt P07858); conditions: cited from earlier work
elastase = conditions: cited from earlier work
synovial membrane cells = synovial membrane cells in vitro; cited from earlier work
serine proteinases = conditions: in vitro; cited from earlier work
hyaluronidases = conditions: cited from earlier work
stromelysin = stromelysin (Homo sapiens, UniProt P08254); conditions: cited from earlier work
[3] = rabbits, IM injection; incl. articular cartilage, synovial fluid, kidneys, brain, liver, skin, heart; cited from earlier work
metalloproteases = conditions: cited from earlier work

Sequence of stromelysin (P08254 100-477): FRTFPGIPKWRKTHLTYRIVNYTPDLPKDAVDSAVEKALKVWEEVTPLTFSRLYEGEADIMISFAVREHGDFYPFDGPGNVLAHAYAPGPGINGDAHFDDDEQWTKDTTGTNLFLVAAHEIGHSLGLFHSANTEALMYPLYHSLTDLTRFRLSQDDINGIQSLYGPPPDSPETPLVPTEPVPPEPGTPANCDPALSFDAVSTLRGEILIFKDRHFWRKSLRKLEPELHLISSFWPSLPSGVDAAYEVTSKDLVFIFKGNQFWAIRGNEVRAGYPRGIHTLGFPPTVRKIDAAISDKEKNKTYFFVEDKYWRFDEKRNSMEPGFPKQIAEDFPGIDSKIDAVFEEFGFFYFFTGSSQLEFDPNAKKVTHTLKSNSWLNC

Substance: chondroitin sulfate A
DISTANCE (CM) [1]: 2.1 ± 0.0 (n = 2) CM

Substance: chondroitin sulfate C
DISTANCE (CM) [1]: 2.0 ± 0.3 (n = 2) CM

Substance: heparin sulfate
DISTANCE (CM) [1]: 2.3 ± 0.0 (n = 2) CM

Substance: hyaluronic acid
DISTANCE (CM) [1]: 1.1 ± 0.1 (n = 2) CM

Now from value to substance, other results behind:

DISTANCE (CM) [1]: 1.7 ± 0.0 (n = 2) CM
Substance: chondroitin sulfate B (dermatan sulfate)

DISTANCE (CM) [1]: 2.5 ± 0.1 (n = 2) CM
Substance: keratan sulfate [Keratin Sulfate]

distance of the violet-blue spot from its starting point [1]: approximately 3 cm
DISTANCE (CM) [1]: 3.1 ± 0.3 (n = 12) CM
Substance: polysulfated glycosaminoglycan [PSGAG]
synthesis of proteoglycan and hyaluronic acid (human chondrocytes): increased synthesis
synthesis of proteoglycan and hyaluronic acid (rabbit chondrocytes): increased synthesis
inhibition of Prostaglandin E2 (PGE2) synthesis [2]: inhibitor
inhibition of cathepsin B1 (cathepsin B1): inhibit
inhibition of elastase (elastase): inhibit
effect on hyaluronic acid synthesis (synovial membrane cells): specific potentiating effect
inhibition of serine proteinases (serine proteinases): significantly inhibit
inhibition of hyaluronidases (hyaluronidases): inhibit
inhibition of stromelysin (stromelysin): inhibit
tissue distribution [3]: distributed to all tissues studied
inhibition of metalloproteases (metalloproteases): inhibit

Source: patent US12636309B2, “Storage stable formulations of sulfated glycosaminoglycans and fragments derived therefrom for the treatment of pain and other medical conditions” (ADORA ANIMAL HEALTH CORPORATION, priority 2022, dated 2026)
